The target of one assay is leukotriene B4 receptors (Cavia porcellus, UniProt H0VYV8). Briefly: biochemical. Type of assay: binding, guinea-pig. The settings on record: Table XIX; guinea-pig spleen membranes, tritium-labelled LTB4; read-out: IC50 Binding (Cheng).
Chain of leukotriene B4 receptors (H0VYV8 1-348): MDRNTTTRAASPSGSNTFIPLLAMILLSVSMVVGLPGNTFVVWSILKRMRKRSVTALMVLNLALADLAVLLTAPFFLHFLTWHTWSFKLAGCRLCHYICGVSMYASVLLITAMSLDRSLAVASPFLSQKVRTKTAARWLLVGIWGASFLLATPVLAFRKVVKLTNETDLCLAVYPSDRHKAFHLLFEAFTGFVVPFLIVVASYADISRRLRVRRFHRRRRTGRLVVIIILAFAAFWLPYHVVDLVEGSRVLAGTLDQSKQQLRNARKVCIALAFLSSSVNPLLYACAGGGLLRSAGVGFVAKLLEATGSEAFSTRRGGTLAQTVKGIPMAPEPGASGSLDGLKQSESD
A word on the IC50: it is the concentration that gives 50% inhibition. `Cc1cccc(-c2cc(OCCCCCC(=O)O)nc(-c3ccccc3)c2)c1` [6-{[4-(3-methylphenyl)-6-phenyl-2-pyridyl]oxy}hexanoic acid]: the half-maximal inhibitory concentration (IC50) came to 15 nM. Take `CC(C)(CCCCCCSc1ncc(-c2ccccc2)c(-c2ccccc2)n1)C(=O)O` [2,2-dimethyl-8-(4,5-diphenyl-2-pyrimidylthio)octanoic acid]: the 50% inhibitory concentration (IC50) was 2500 nM.

For `CC(C)(CCCCOc1cc(-c2ccc(Cl)cc2)ccn1)C(=O)O` [6-{[4-(4-chlorophenyl)-2-pyridyl]oxy}-2,2-dimethylhexanoic acid], the IC50 came to 20 nM. For `O=C(O)CCCCCCc1cccc(Cc2ccccc2)c1` [7-(3-benzylphenyl)heptanoic acid, 7-(3-benzyl-phenyl)heptanoic acid], the half-maximal inhibitory concentration (IC50) came to 7000 nM. For `CC(C)(CCCCOc1cccc(-c2ccccc2)n1)C(=O)O` [6-[(6-phenyl-2-pyridyl)oxy]-2,2-dimethylhexanoic acid], the IC50 worked out at 2000 nM. Same read-out and setting: the value for `O=C(O)CCCCCOc1cc(-c2cccc(Cl)c2)cc(-c2ccccc2)n1` [6-{[4-(3-chlorophenyl)-6-phenyl-2-pyridyl]oxy}hexanoic acid] was 4 nM; that for `Clc1ccc(-c2cc(OCCCCCc3nnn[nH]3)nc3ccccc23)cc1` [5-{5-{[4-(4-chlorophenyl)-2-quinolyl]oxy}pentyl}-[1H]-tetrazole] was 25 nM; that for `O=C(O)CCCCCOc1cc(-c2ccccc2Cl)cc(-c2ccccc2)n1` [6-{[4-(2-chlorophenyl)-6-phenyl-2-pyridyl]oxy}hexanoic acid] was 200 nM. Take `COc1ccc(-c2cc(-c3ccc(Cl)cc3)cc(OCCCCCC(=O)O)n2)cc1` [6-{[4-(4-chlorophenyl)-6-(4-methoxyphenyl)-2-pyridyl]oxy}hexanoic acid]: the IC50 was 1700 nM. Regarding `O=C(O)CCCCCCCSc1ncc(-c2ccccc2)c(-c2ccccc2)n1`, the 50% inhibitory concentration (IC50) was found to be 3000 nM. Regarding `CC(C)(CCCCOc1cc(-c2ccc(Cl)cc2)cc(-c2ccccc2)n1)C(=O)O` [2,2-dimethyl-6-{[4-(4-chlorophenyl)-6-phenyl-2-pyridyl]oxy}hexanoic acid], the IC50 came out at 100 nM.

As for `CC(C)(CCCCOc1cc(-c2ccc(N)cc2)c2ccccc2n1)C(=O)O` [2,2-dimethyl-6-{[4-(4-aminophenyl)-2-quinolyl]oxy}hexanoic acid], the half-maximal inhibitory concentration (IC50) was 40 nM. With `CC(C)(CCCCOc1cc(-c2ccc([N+](=O)[O-])cc2)c2ccccc2n1)C(=O)O` [2,2-dimethyl-6-{[4-(4-nitrophenyl)-2-quinolyl]oxy}hexanoic acid], the IC50 came out at 150 nM. `CC(C)(CCCCOc1cc(-c2ccc(Cl)c(Cl)c2)c2ccccc2n1)C(=O)O` [2,2-dimethyl-6-{[4-(3,4-dichlorophenyl)-2-quinolyl]oxy}hexanoic acid]: the IC50 is 3500 nM.

On to `COc1cccc(-c2cc(OCCCCC(C)(C)C(=O)O)nc3ccccc23)c1` [2,2-dimethyl-6-{[4-(3-methoxyphenyl)-2-quinolyl]oxy}hexanoic acid], for which the half-inhibitory concentration (IC50) came to 300 nM. Same read-out and setting: next, `CC(C)(CCCCOc1cc(-c2cccc(Cl)c2)c2ccccc2n1)C(=O)O` [2,2-dimethyl-6-{[4-(3-chlorophenyl)-2-quinolyl]oxy}hexanoic acid]: 1100 nM; `COc1ccc(-c2ccc(OCCCCCCCC(=O)O)nc2-c2ccc(OC)cc2)cc1` [8-{[5,6-bis-(4-methoxyphenyl)-2-pyridyl]oxy}octanoic acid]: 3000 nM; `CC(C)(CCCCOc1cc(-c2cccs2)c2ccccc2n1)C(=O)O` [2,2-dimethyl-6-{[4-(2-thienyl)-2-quinolyl]oxy}hexanoic acid]: 200 nM.

For the compound `c1ccc(-c2cc(-c3ccc4c(c3)OCO4)cc(OCCCCCc3nnn[nH]3)n2)cc1` [5-{5-{[6-phenyl-4-(3,4-methylenedioxyphenyl)-2-pyridyl]oxy}pentyl}-1H-tetrazole], the IC50 is 2 nM.

In the case of `O=C(O)CCCCCOc1cc(-c2ccc(Cl)cc2)cc(-c2ccc(Cl)cc2)n1` [6-{[4,6-di(4-chlorophenyl)-2-pyridyl]oxy}hexanoic acid], the IC50 worked out at 1200 nM. Regarding `CC(C)(CCCCOc1cc(-c2ccccc2)c2ccccc2n1)C(=O)O` [2,2-dimethyl-6-[(4-phenyl-2-quinolyl)oxy]hexanoic acid], the IC50 worked out at 150 nM. Consider `COc1ccc(-c2cnc(OCCCCCC(=O)O)nc2-c2ccc(OC)cc2)cc1` [6-[4,5-bis-(4-methoxyphenyl)-2-pyrimidyloxy]hexanoic acid], for which the IC50 is 8000 nM.

Regarding `O=C(O)CCCCCOc1cc(-c2ccccc2)cc(-c2ccc(Cl)cc2)n1` [6-{[6-(4-chlorophenyl)-4-phenyl-2-pyridyl]oxy}hexanoic acid], the IC50 was 1000 nM. `O=C(O)CCCCCCCOc1ncc(-c2ccccc2)c(-c2ccccc2)n1` [8-(4,5-diphenyl-2-pyrimidyloxy)octanoic acid]: the IC50 turned out to be 8500 nM.

As to `Cc1cc(-c2ccccc2)cc(OCCCCCC(=O)O)n1` [6-[(6-methyl-4-phenyl-2-pyridyl)oxy]hexanoic acid], the half-maximal inhibitory concentration (IC50) was found to be 200 nM. Take `O=C(O)CCCCCOc1cc(-c2cc(Cl)cc(Cl)c2)cc(-c2ccccc2)n1` [6-{[4-(3,5-dichlorophenyl)-6-phenyl-2-pyridyl]oxy}hexanoic acid]: the IC50 turned out to be 500 nM. On the same count and under the same terms, the value for `CC(C)(CCCCOc1ccc(-c2ccccc2)c(-c2ccccc2)n1)C(=O)O` [6-[(5,6-diphenyl-2-pyridyl)oxy]-2,2-dimethylhexanoic acid] was 10000 nM. For `Cc1ccc(-c2cc(OCCCCC(C)(C)C(=O)O)nc3ccccc23)cc1` [2,2-dimethyl-6-{[4-(4-tolyl)-2-quinolyl]oxy}hexanoic acid], the IC50 was determined as 30 nM. For the compound `CC(C)(CCCCCCOc1cc(-c2ccccc2)cc(-c2ccccc2)n1)C(=O)O` [2,2-dimethyl-8-[(4,6-diphenyl-2-pyridyl)oxy]octanoic acid], the IC50 is 22 nM.

As to `Nc1cccc(-c2cc(OCCCCCC(=O)O)nc(-c3ccccc3)c2)c1` [6-{[4-(3-aminophenyl)-6-phenyl-2-pyridyl]oxy}hexanoic acid], the IC50 was determined as 12 nM. `O=C(O)CCCCCSc1ncc(-c2ccccc2)c(-c2ccccc2)n1` [6-(4,5-diphenyl-2-pyrimidylthio)hexanoic acid]: the IC50 came out at 8000 nM.

For the compound `Cc1ccc(-c2cc(-c3ccccc3)cc(OCCCCCC(=O)O)n2)cc1` [6-{[6-(4-methylphenyl)-4-phenyl-2-pyridyl]oxy}hexanoic acid], the IC50 turned out to be 300 nM.

On to `CC(C)(CCCCOc1cc(-c2ccccc2)c2ccccc2n1)c1nnn[nH]1` [5-{1,1-dimethyl-5-[(4-phenyl-2-quinolyl)oxy]pentyl}-[1H]-tetrazole], for which the half-inhibitory concentration (IC50) was determined as 400 nM. On to `O=C(O)CCCCCOc1cc(-c2ccccc2)ccn1` [6-[(4-phenyl-2-pyridyl)oxy]hexanoic acid], for which the half-inhibitory concentration (IC50) was determined as 900 nM. Still for that read-out and setting: next, `O=C(O)COCCCOc1cc(-c2ccccc2)cc(-c2ccccc2)n1`: 100 nM; `Cc1ccc2nc(OCCCCC(C)(C)C(=O)O)cc(-c3ccccc3)c2c1` [6-[(6-methyl-4-phenyl-2-quinolyl)oxy]-2,2-dimethylhexanoic acid]: 5000 nM; `CC(C)(CCCCOc1cc(-c2ccc(C(F)(F)F)cc2)c2ccccc2n1)C(=O)O` [2,2-dimethyl-6-{[4-(4-trifluoromethylphenyl)-2-quinolyl]oxy}hexanoic acid]: 300 nM. In the case of `CC(CCCCOc1cc(-c2ccc3c(c2)OCO3)cc(-c2ccccc2Cl)n1)C(=O)O` (stereo not drawn) [6-{[6-(2-chlorophenyl)-4-(3,4-methylenedioxyphenyl)-2-pyridyl]oxy}-2-methylhexanoic acid], the IC50 was determined as 2 nM. For `CC(C)(CCCCOc1cc(-c2ccc(Cl)cc2)c2ccccc2n1)c1nnn[nH]1` [5-{1,1-dimethyl-5-{[4-(4-chlorophenyl)-2-quinolyl]oxy}pentyl}-[1H]-tetrazole], the IC50 stood at 30 nM. On to “6-[(6-cyclopropyl-5-phenyl-2-pyridyl)oxy]hexanoic acid”, for which the IC50 was 40 nM.

Turning to `CC(C)(CCCCOc1cc(-c2ccc(Cl)cc2)c2ccccc2n1)C(=O)O` [2,2-dimethyl-6-{[4-(4-chlorophenyl)-2-quinolyl]oxy}hexanoic acid], the concentration for half-maximal inhibition (IC50) came to 15 nM. In the case of `CCOC(=O)CCCCCOc1cc(-c2ccccc2)cc(-c2ccc(Cl)cc2)n1` [ethyl 6-{[6-(4-chlorophenyl)-4-phenyl-2-pyridyl]oxy}hexanoate], the half-maximal inhibitory concentration (IC50) was found to be 5000 nM.

The assay is the same for the next values; noted with them: read-out: Binding (Cheng) % Inhibition at 10 μM.
In general, inhibition refers to the percentage by which the read-out fell short of the control. `COc1cc(OC)cc(-c2cc(OCCCCCC(=O)O)nc(-c3ccccc3)c2)c1` [6-{[6-phenyl-4-(3,5-dimethoxyphenyl)-2-pyridyl]oxy}hexanoic acid]: the inhibition at 10 µM is 50%. Consider `COc1ccc(-c2cc(OCCCCCC(=O)O)nc(-c3ccccc3)c2)cc1OC` [6-{[6-phenyl-4-(3,4-dimethoxyphenyl)-2-pyridyl]oxy]hexanoic acid], for which the inhibition at 10 µM was 21%. As for `CC(C)(CCCCSc1cc(-c2ccccc2)c2ccccc2n1)C(=O)O` [2,2-dimethyl-6-[(4-phenyl-2-quinolyl)thio]hexanoic acid], the inhibition at 10 µM worked out at 33%. With `O=C(O)CCCCC=Cc1cc(-c2ccccc2)c2ccccc2n1` [7-(4-phenyl-2-quinolyl)-6-hepten-1-oic acid], the inhibition at 10 µM was determined as 27%. On the same count and under the same terms, next, `O=C(O)CCCCCOc1ncc(-c2ccccc2)c(-c2ccccc2)n1` [6-(4,5-diphenyl-2-pyrimidyloxy)hexanoic acid]: 35%; `COc1ccc(-c2ccc(OCCCCCC(=O)O)nc2-c2ccc(OC)cc2)cc1` [6-{[5,6-bis-(4-methoxyphenyl)-2-pyridyl]oxy}hexanoic acid]: 37%. For `O=C(O)CCCCCCCSc1cc(-c2ccccc2)c2ccccc2n1` [sodium 8-[(4-phenyl-2-quinolyl)thio]octanoate], the inhibition at 10 µM worked out at 31%. With `O=C(O)CCCCCCOc1ncc(-c2ccccc2)c(-c2ccccc2)n1` [7-(4,5-diphenyl-2-pyrimidyloxy)heptanoic acid], the inhibition at 10 µM amounted to 22%.

Regarding `COc1ccccc1-c1cc(OCCCCC(C)(C)C(=O)O)nc2ccccc12` [6-{[4-(2-methoxyphenyl)-2-quinolyl]oxy}-2,2-dimethylhexanoic acid], the inhibition at 10 µM was found to be 36%.

For the origin of these results see patent US5366982A (priority 1990, dated 1994).
